# Read-outs that look alike come from different tables or passages of the source.
# Tests used:
# [1] = Assay for Determination of Drug Transport Across Human CACO-2 Cells; type: in vitro ADME; details: human; for efflux ratio at 2 h, 10 nM: pH 7.2, Caco-2, PEBA/PEAB; for Papp A→B at 10 nM: Caco-2, apical-to-basal, read-out: PEAB; for Papp A→B at 10 nM / Papp B→A at 10 nM: pH 7.2, 37° C.; for Papp B→A at 10 nM: Caco-2, basal-to-apical, read-out: PEBA
# Source text: Assay for Determination of Drug Transport Across Human CACO-2 Cells
# The assay provides information on the potential of a compound to pass the cell membrane, on the extent of oral absorption as well as on whether the compound is actively transported by uptake and/or efflux transporters. For the measurement of permeability across polarized, confluent human cancer colon carcinoma cells 2 (Caco-2) cell monolayers grown on permeable filter supports are used as the in vitro absorption model. Apparent permeability coefficients (PE) of the compounds across the Caco-2 monolayers are measured (pH 7.2, 37° C.) in apical-to-basal (AB) (absorptive) and basal-to-apical (BA) (secretory) transport direction. AB permeability (PEAB) represents drug absorption from the intestine into the blood and BA permeability (PEBA) drug secretion from the blood back into the intestine via both passive permeability as well as active transport mechanisms mediated by efflux and uptake transporters that are expressed on the Caco-2 cells. The compounds are assigned to permeability/absorption classes by comparison of the AB permeabilities with the AB permeabilities of reference compounds with known in vitro permeability and oral absorption in the human. Identical or similar permeabilities in both transport directions indicate passive permeation, vectorial permeability points to additional active transport mechanisms. […] Active transport is concentration-dependently saturable.
# Caco-2 cells (1−2*10^5 cells/cm^2 area) are seeded on filter inserts (Costar transwell polycarbonate or PET filters, […] pore size) and cultured (DMEM) for 10 to 25 days. Compounds are dissolved in appropriate solvent (like DMSO, 1-20 mM stock solutions). Stock solutions are diluted with HTP-4 buffer (128.13 mM NaCl, 5.36 mM KCl, 1 mM MgSO4, 1.8 mM CaCl2, 4.17 mM NaHCO3, 1.19 mM Na2HPO4×7H2O, 0.41 mM NaH2PO4×H2O, 15 mM HEPES, 20 mM glucose, pH 7.2) to prepare the transport solutions (typically […] compound, final DMSO <=0.5%). The transport solution (TL) is applied to the apical or basolateral donor side for measuring A-B or B-A permeability (3 filter replicates), respectively. The receiver side contains HTP-4 buffer supplemented with 2% BSA. Samples are collected at the start and end of experiment from the donor and at various time intervals for up to 2 hours also from the receiver side for concentration measurement by LC-MS/MS or scintillation counting. Sampled receiver volumes are is replaced with fresh receiver solution.
# The apparent permeability coefficients (PEAB and PEBA) and efflux ratios (PEBA/PEAB) of selected compounds in the Caco-2 drug transport assay described above are listed in Table 17.
# [2] = target: neutrophil elastase in human plasma (Homo sapiens (Human), UniProt P08246); experiment: Assay for the Determination of Neutrophil Elastase Inhibitory Activity in Human Plasma; type: biochemical; details: neutrophil elastase enriched human plasma (zymosan-stimulated blood)
# Experimental: Assay for the Determination of Neutrophil Elastase Inhibitory Activity in Human Plasma
# Citrated blood from human healthy donors is mixed with zymosan suspension and incubated at room temperature. This leads to the stimulation of neutrophils and the release of neutrophil elastase into the plasma. The stimulated blood is centrifuged to generate the neutrophil elastase enriched plasma.
# Preparation of Zymosan Working Solution:
# • single 45 ml blood sample is taken into a 50 ml tube containing citrate (3.13%, 5 mL) and the tube is gently inverted 4 times. • Immediately after blood sampling, zymosan working solution (5 mL) is added. • After the addition of zymosan working solution, the tubes are capped, mixed gently and incubated at 22° C. for 15 min on a shaker at 20 rpm. • Make 10 ml aliquots after the incubation time. • Centrifuge the 15 ml tubes at 800 g for […] at 4° C. in a Jouan centrifuge. • Harvest the plasma and make 1-5 ml aliquots. • Store the plasma at −80° C.
# Various concentrations of the neutrophil elastase inhibitor are incubated with plasma. Subsequently, the enzyme activity is measured using the fluorogenic substrate MeOSuc-Ala-Ala-Pro-Val-AMC (Bachem Cat. No. 1-1270, substrate concentration: 250 μM, pH 7.5, 25 mM TRIS buffer, 250 mM NaCl) in analogous fashion as described for the human neutrophil assay. A dose response curve is generated to calculate the EC50 of the inhibitor. The analysis of the data is performed by the calculation of the percentage of fluorescence in the presence of the test compound compared to the fluorescence of the vehicle control after subtracting the background fluorescence: An inhibitor of the neutrophil elastase enzyme will give values between 100% control (no inhibition) and 0% control (complete inhibition). The human plasma shift of selected compounds can be calculated using the following equation: Human plasma shift=(EC50 in human plasma assay)/(IC50 in human neutrophil elastase assay) The EC50 values of selected compounds in the human plasma assay described above are listed in Table 14.
# [3] = target: Human neutrophil elastase (Homo sapiens (Human), UniProt P08246); experiment: Human Neutrophil Elastase Assay; type: biochemical
# Experimental: Human Neutrophil Elastase Assay
# Materials: Human neutrophil elastase was purchased from Calbiochem (Cat.No.: 324681) and the elastase substrate MeOSuc-Ala-Ala-Pro-Val-AMC from Bachem (Cat.No.: I-1270). All other materials were of the highest grade commercially available.
# The following buffers were used: Compound buffer: 100 mM Tris, 500 mM NaCl, adjusted to pH 7.5; Assay buffer: 100 mM Tris, 500 mM NaCl, adjusted to pH 7.5, containing 0.01% BSA.
# Assay conditions: Test compounds were prediluted in DMSO and subsequently in compound buffer (5% DMSO final). 5 μL of these compound dilutions were mixed with 10 μl Neutrophil elastase (9 ng/ml in assay buffer) in a black 384 well OptiPlate (Perkin Elmer, Cat No.: 6007270) and incubated for 15 min at room temperature. Subsequently 10 μL substrate solution in assay buffer were added (250 nM final concentration) and the plates were incubated for 60 min at room temperature. After inactivation of the enzyme, fluorescence intensities were measured at 380 nm excitation and 460 nm emission wavelengths.
# Each plate contains wells with a high value control (DMSO+enzyme+substrate) and wells with a low value control (DMSO+inactivated enzyme+substrate). IC50 values were estimated using a sigmoidal concentration response curve with variable slope. Means of low values were taken as 0%, means of high values as 100%.
# [4] = human neutrophil elastase, substrate MeOSuc-Ala-Ala-Pro-Val-AMC, pH 7.5, read-out: IC50
# Human neutrophil elastase, sequence (P08246 30-267): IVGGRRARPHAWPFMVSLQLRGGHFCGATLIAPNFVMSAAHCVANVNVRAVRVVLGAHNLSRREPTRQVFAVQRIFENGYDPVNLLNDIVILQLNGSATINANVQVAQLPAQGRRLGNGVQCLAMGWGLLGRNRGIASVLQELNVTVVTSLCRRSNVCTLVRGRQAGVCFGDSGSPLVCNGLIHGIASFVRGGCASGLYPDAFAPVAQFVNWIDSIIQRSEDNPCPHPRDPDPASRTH
# neutrophil elastase in human plasma, sequence (P08246 30-267): as above
Structure (SMILES),"efflux ratio at 2 h, 10 nM [1]",Papp A→B at 10 nM [1],Papp B→A at 10 nM [1],EC50 [2],"IC50 [3, 4]","IC50 ([3]; read-out: IC50, inhibition of neutrophil elastase)"
"CS(=O)(=O)c1cc(C#N)ccc1[C@H]1NC(=O)N(c2cccc(C(F)(F)F)c2)C2=C1C(=O)CCC2 (single isomer, unassigned) [Example 18A]",4.2,20.9 ×10⁻⁶ cm/s,88.2 ×10⁻⁶ cm/s,3 nM,4.8 nM,4.8 nM
"CS(=O)(=O)c1cc(C#N)ccc1[C@H]1NC(=O)N(c2cccc(C(F)F)c2)C2=C1C(=O)CCC2 (single isomer, unassigned) [Example 19A]",6.7,11.4 ×10⁻⁶ cm/s,76.7 ×10⁻⁶ cm/s,2 nM,7.3 nM,–
CC(C)(O)CNC(=O)N1C(=O)N(c2cccc(C(F)(F)F)c2)C2=C(C(=O)CCC2)C1c1ccc(C#N)cc1 (centres unmarked) [Example 70.9],3.2,30.3 ×10⁻⁶ cm/s,96.1 ×10⁻⁶ cm/s,15 nM,1.7 nM,–

# Compounds with a lower EC50 [2], results first:
"efflux ratio at 2 h, 10 nM [1]",Papp A→B at 10 nM [1],Papp B→A at 10 nM [1],EC50 [2],"IC50 [3, 4]","IC50 ([3]; read-out: IC50, inhibition of neutrophil elastase)",Structure (SMILES)
5.4,9.86 ×10⁻⁶ cm/s,53.5 ×10⁻⁶ cm/s,1 nM,< 1 nM,–,"CNC(=O)N1C(=O)N(c2cccc(C(F)(F)F)c2)C2=C(C(=O)CCC2)[C@H]1c1ccc(C#N)cc1S(C)(=O)=O (single isomer, unassigned) [Example 47A]"
2.4,26 ×10⁻⁶ cm/s,61.7 ×10⁻⁶ cm/s,1 nM,3.2 nM,–,"CCS(=O)(=O)c1cc(C#N)ccc1[C@H]1NC(=O)N(c2cccc(C(F)(F)F)c2)C2=C1C(=O)CCC2 (single isomer, unassigned) [Example 54A]"
